Values of other authors, collected in patent US10307140B2, “Device for detection of hepatocellar carcinoma (HCC) using an octanoate breath test” (EXALENZ BIOSCIENCE LTD., priority 2011, dated 2019).
Read-outs that look alike come from different tables or passages of the source.

System: liver mitochondria
Settings: HCC patients

change of ketoisocaproate decarboxylation (after RFA, P<0.05): −27% | change of ketoisocaproate decarboxylation (after TACE): unaffected
SMILES: CC(C)CC(=O)C(=O)O [KICA, ketoisocaproate]
